{"source": "patent US11629055B2", "about": "“Magnesium phosphate hydrogels” (INViCARE INC., priority 2015, dated 2023)", "key": {"mice tibial fracture": {"tested_on": "mice tibial fracture", "test": "Mice tibial fracture model (guarding, weight bearing, micro-CT, three point bending)", "type": "in vivo", "details": "three point bending test, two weeks following fracture", "method": "The effects of NMP alone, NMP combined with mepivacaine and mepivacaine alone, on post-fracture mobilization, postoperative pain and bone healing were assessed in vivo using a standardized mice tibial fracture model (St-Arnaud, The Journal of steroid biochemistry and molecular biology 121, 254-256 (2010)). Thirty-two mice were randomly assigned into four groups (n=8, each); saline, mepivacaine, NMP and NMP+mepivacaine. Thirty minutes prior to surgical intervention, each mouse was injected with Carprofen (20 mg/kg; SC).\nThe animal was then anesthetized with isoflurane (3-5% at the induction time and 2-2.5% during the maintenance period). […] A longitudinal skin incision was made in order to expose the right patellar tendon. […]\nPost-operative Animals' pain perception and locomotion were evaluated, at different time point; […], 3 days, one week and two weeks post fracture, by assessing mice guarding (Yasuda et al., Journal of pain research 6, 161 (2013)) and weight bearing per each leg, respectively. […] Guarding behavior was assessed as following; each mouse was placed individually in a clear plastic box on an elevated stainless steel mesh. […]\nWeight bearing test was performed as following; an incapacitance meter (IITC.inc, CA, US) was used for determination of hind paw weight distribution. […] The weight exerted by each hind limb was measured and averaged over a period of 5 seconds. […]"}, "[1]": {"test": "In vitro drug release of mepivacaine (dialysis tube, PBS, 37° C., UV-Vis)", "type": "physicochemical", "method": "For the in vitro drug release, mepivacaine hydrochloride was dissolved in 1 mL of gel previously prepared to reach different mepivacaine concentration. The pH of the resulting thixotropic colloidal suspension before the addition of mepivacaine was 7.95, while after the addition of the drug changed to 7.1. The gel+mepivacaine was placed in a Pur-L-Lyzer™ dialysis tube with a molecular weight cut-off of 12000 Da, while the control group is represented by the mepivacaine dissolved in PBS (2% w/v) and placed in a dialysis tubes with the same molecular weight cut-off. The tubes were incubated in 30 mL of phosphate buffer saline solution (PBS) at 37° C., and the solution was changed at different time points comprised between 0 and 168 hours. In order to calculate the amount of drug released, the extracted solutions were analyzed with UV-Vis spectroscopy following the absorption of mepivacaine at 263 nm. All experiments were done in triplicates."}}}
{"smiles": "Cc1cccc(C)c1NC(=O)C1CCCCN1C", "note": "(stereo not drawn) [mepivacaine]", "values": [{"measurement": "force to fracture, fractured versus non-fractured tibia", "setting": "mice tibial fracture", "value": "significantly different"}, {"measurement": "total release of drug", "setting": "[1]; after 8 hours, PBS, 37° C.", "value": "90±5", "unit": "%"}, {"measurement": "stability of mepivacaine in contact with the gel (UV-Vis spectra)", "setting": "[1]; after 24 hours from the beginning of the release experiment", "value": "molecular integrity of the drug"}]}
